Our source for the GI50 values is patent US10647680B2, “Urea compound, preparation method therefor and medical use thereof” (Ancureall Pharmaceutical (Shanghai) Co., Ltd., priority 2016, dated 2020).

Each structure is given as a SMILES string.

In one experiment the test system is U937 (FLT3 wild-type). The experiment is described as follows: In vitro growth inhibition (GI50), U937. The class given is cell-based. The conditions noted are these: Homo sapiens, U-937; Cell lines of leukemia; read-out: GI 50 U937 FLT 3(WT).
The test system of experiment [1] is KG-1 (expressing FGFR1OP2-FGFR1 fusion protein). The experiment is described as follows: In vitro growth inhibition (GI50), KG-1. The experiment is classed as cell-based. The conditions noted are these: Homo sapiens; Cell lines of leukemia; read-out: GI 50 KG-1 FGFR1OP 2-FGFR1.
The test system of experiment [2] is OCI-AML3 (NPMc+ mutant type). As to the kind of experiment: In vitro growth inhibition (GI50), OCI-AML3. The conditions noted are these: Homo sapiens, OCI-AML-3; Cell lines of leukemia; read-out: GI 50 OCI- AML3 NPMc+. The experiment is classed as cell-based.
Experiment [3] relates to Kasumi-1 (c-Kit N822K mutant type). As to the kind of experiment: In vitro growth inhibition (GI50), Kasumi-1. The experiment is classed as cell-based. The conditions noted are these: Homo sapiens, Cell lines of leukemia, read-out: GI 50 Kasumi-1 Kit (N822K). The procedure, abridged: (§1)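 After 3–5 days of treatment (top concentration 5,000 nM, serially diluted 2- or 10-fold to 0.01 nM, solvent ≤1%), viability was read by CCK8 at OD450. Growth rate was normalised to the time-zero and solvent-control wells, and GI50 was derived from the curve. Cultures in RPMI1640 + 10% FBS.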

For experiment [4], the system named is K562 (FLT3 negative expression, positive expression of BCR-ABL fusion protein). The experiment is described as follows: In vitro growth inhibition (GI50), K562. Conditions: Homo sapiens, Cell lines of leukemia, read-out: GI 50 K562 BCR-ABL. The class given is cell-based.
Experiment [5] deals with RAMOS (positive expression of Brutons tyrosine protein kinase). As to the kind of experiment: In vitro growth inhibition (GI50), RAMOS. Conditions: Homo sapiens, Cell lines of leukemia, read-out: GI 50 Ramos BTK. The experiment is classed as cell-based.
Experiment [6] concerns MOLM-13 (FLT3 ITD+/− mutant type). The experiment is described as follows: In vitro growth inhibition (GI50), MOLM-13. The class given is cell-based, human. The conditions noted are these: Homo sapiens, MOLM-13; Cell lines of leukemia; read-out: GI 50 MOLM-13 FLT3 (ITD+/−).
Experiment [7] relates to MV4-11 (FLT3 ITD+/+ mutant type). The experiment is described as follows: In vitro growth inhibition (GI50), MV4-11. The class given is cell-based, human. Conditions: Homo sapiens, MV4-11; Cell lines of leukemia; read-out: GI 50 MV4-11 FLT3 (ITD +/+).
Another experiment relates to RS4; 11 (FLT3 wild type). As to the kind of experiment: In vitro growth inhibition (GI50), RS4; 11. The conditions noted are these: Homo sapiens, RS4-11; Cell lines of leukemia; read-out: GI 50 RS4: 11 FLT3 (WT). The experiment is classed as cell-based, human.
The test system of the next experiment is HL-60 (FLT3 wild type). The experiment is described as follows: In vitro growth inhibition (GI50), HL-60. The conditions noted are these: Homo sapiens, Cell lines of leukemia, read-out: GI 50 HL60 FLT3 (WT). The experiment is classed as cell-based. In short, it runs like this: as §1

As for `CCOc1ccc2c(c1)ncn2-c1ccc(NC(=O)Nc2cc(C(C)(C)C)n[nH]2)cc1` [Compound 72, 1-(5-tert-butyl-2H-pyrazol-3-yl)-3-[4-(5-ethoxyl-benzimidazol-1-yl)-phenyl]-urea], the GI50 (in the experiment on U937 (FLT3 wild-type); in experiment [1]; in experiment [2]; in experiment [3]; in [4]; in experiment [5]) was more than 1 µM in each case. For the same compound, the GI50 in experiment [6] is 0.0001 to 0.001 µM; in experiment [7] it was 0.0001 to 0.001 µM; with RS4; 11 (FLT3 wild type) it was more than 1 µM; with HL-60 (FLT3 wild type), more than 1 µM.
For the compound `CCCCCCOc1ccc2c(c1)ncn2-c1ccc(NC(=O)Nc2cc(C(C)(C)C)n[nH]2)cc1` [Compound 73, 1-(5-tert-butyl-2H-pyrazol-3-yl)-3-[4-(5-hexyloxyl-benzimidazol-1-yl)-phenyl]-urea], the GI50 (with U937 (FLT3 wild-type); in experiment [1]; in experiment [2]; in experiment [3]; in experiment [4]; in experiment [5]) was more than 1 µM each time. In addition, the GI50 in experiment [6] is 0.0001 to 0.001 µM; in experiment [7], 0.0001 to 0.001 µM; in the experiment on RS4; 11 (FLT3 wild type), more than 1 µM; with HL-60 (FLT3 wild type) it was more than 1 µM.
In the case of `CCOC(=O)COc1ccc2c(c1)ncn2-c1ccc(NC(=O)Nc2cc(C(C)(C)C)n[nH]2)cc1` [Compound 88, ethyl (1-{4-[3-(5-tert-butyl-2H-pyrazol-3-yl)-carbamido]-phenyl}-H-benzimidazol-5-yloxy)-acetate], the GI50 (with U937 (FLT3 wild-type); in [1]; in experiment [2]; in [3]; in experiment [4]; in [5]) was more than 1 µM in each case. The GI50 was 0.001 to 0.01 µM in experiment [6], 0.001 to 0.01 µM in experiment [7], more than 1 µM in the experiment on RS4; 11 (FLT3 wild type) and more than 1 µM in the experiment with HL-60 (FLT3 wild type).
Take `CC(C)(C)c1cc(NC(=O)Nc2ccc(-n3cnc4ccccc43)cc2)n(-c2ccccc2)n1` [Compound 104, 1-(4-benzimidazol-1-yl-phenyl)-3-(5-tert-butyl-2-phenyl-2H-pyrazol-3-yl)-urea]: the GI50 (in the experiment with U937 (FLT3 wild-type); in [1]; in experiment [2]; in experiment [3]; in experiment [4]; in experiment [5]) was more than 1 µM in each case. For the same compound, the GI50 in experiment [6] is 0.0001 to 0.001 µM; in [7] it was 0.0001 to 0.001 µM; in the experiment with RS4; 11 (FLT3 wild type), more than 1 µM; in the experiment on HL-60 (FLT3 wild type) it was more than 1 µM.
As for `COc1cc2ncn(-c3ccc(NC(=O)Nc4cc(C(C)(C)C)on4)cc3)c2cc1OC` [Compound 31, 1-(5-tert-butyl-isoxazol-3-yl)-3-[4-(5,6-dimethoxyl-benzimidazol-1-yl)-phenyl]-urea], the GI50 with U937 (FLT3 wild-type) is more than 1 µM; in [1] it was more than 1 µM; in [2], more than 1 µM; in [3] it was 0.1 to 1 µM; in experiment [4], 0.1 to 1 µM; in experiment [5] it was 0.1 to 1 µM. The GI50 is 0.0001 to 0.001 µM in [6], 0.0001 to 0.001 µM in experiment [7], 0.1 to 1 µM in the experiment with RS4; 11 (FLT3 wild type) and more than 1 µM in the experiment on HL-60 (FLT3 wild type).
In the case of `CC(C)Oc1ccc2c(c1)ncn2-c1ccc(NC(=O)Nc2cc(C(C)(C)C)on2)cc1` [Compound 8, 1-(5-tert-butyl-isoxazol-3-yl)-3-[4-(5-isopropoxy-benzimidazol-1-yl)-phenyl]-urea], the GI50 (in the experiment with U937 (FLT3 wild-type); in experiment [1]; in [2]; in experiment [3]; in [4]; in experiment [5]) was more than 1 µM throughout. Also, the GI50 in experiment [6] is 0.0001 to 0.001 µM; in experiment [7], 0.0001 to 0.001 µM; in the experiment with RS4; 11 (FLT3 wild type), more than 1 µM; with HL-60 (FLT3 wild type) it was more than 1 µM.
On to `CC(C)(C)c1cc(N)n(C(=O)Nc2ccc(-n3cnc4cc(OCCN5CCOCC5)ccc43)cc2)n1` [Compound 119, 5-amino-3-tert-butyl-pyrazol-1-carboxylic acid {4-[5-(2-morpholin-4-yl-ethoxyl)-benzimidazol-1-yl]-phenyl}-amide], for which the GI50 (with U937 (FLT3 wild-type); in [1]; in [2]; in [3]; in experiment [4]; in experiment [5]) was more than 1 µM throughout. The GI50 in experiment [6] is 0.001 to 0.01 µM; in [7], 0.001 to 0.01 µM; with RS4; 11 (FLT3 wild type), more than 1 µM; in the experiment with HL-60 (FLT3 wild type), more than 1 µM.
With `CCC(C)Oc1ccc2c(c1)ncn2-c1ccc(NC(=O)Nc2cc(C(C)(C)C)n[nH]2)cc1` (stereo not shown) [Compound 75, 1-[4-(5-sec-butoxy-benzimidazol-1-yl)-phenyl]-3-(5-tert-butyl-2H-pyrazol-3-yl)-urea], the GI50 (in the experiment on U937 (FLT3 wild-type); in experiment [1]; in experiment [2]; in experiment [3]; in experiment [4]; in experiment [5]) was more than 1 µM throughout. The GI50 in [6] is 0.0001 to 0.001 µM; in experiment [7] it was 0.0001 to 0.001 µM; in the experiment on RS4; 11 (FLT3 wild type) it was more than 1 µM; in the experiment with HL-60 (FLT3 wild type), more than 1 µM.
For `COc1ncnc2c1ncn2-c1ccc(NC(=O)Nc2cc(C(C)(C)C)on2)cc1` [Compound 58, 1-(5-tert-butyl-isoxazol-3-yl)-3-[4-(6-methoxylpurin-9-yl)-phenyl]-urea], the GI50 (in the experiment on U937 (FLT3 wild-type); in [1]; in experiment [2]; in [3]; in [4]; in experiment [5]) was more than 1 µM in each case. Besides, the GI50 in experiment [6] is 0.01 to 0.1 µM; in [7], 0.01 to 0.1 µM; with RS4; 11 (FLT3 wild type), more than 1 µM; with HL-60 (FLT3 wild type), more than 1 µM.
As to `CC(C)(C)c1cc(NC(=O)Nc2ccc(-n3cnc4cc(C(F)(F)F)ccc43)cc2)[nH]n1` [Compound 70, 1-(5-tert-butyl-2H-pyrazol-3-yl)-3-[4-(5-trifluoromethyl-benzimidazol-1-yl)-phenyl]-urea], the GI50 (in the experiment with U937 (FLT3 wild-type); in [1]; in experiment [2]; in experiment [3]; in [4]; in experiment [5]) was more than 1 µM each time. Further, the GI50 in [6] is 0.001 to 0.01 µM; in experiment [7] it was 0.001 to 0.01 µM; in the experiment on RS4; 11 (FLT3 wild type) it was more than 1 µM; with HL-60 (FLT3 wild type), more than 1 µM.
With `CC(C)COc1ccc2c(c1)ncn2-c1ccc(NC(=O)Nc2cc(C(C)(C)C)n[nH]2)cc1` [Compound 76, 1-(5-tert-butyl-2H-pyrazol-3-yl)-3-[4-(5-isobutoxy-benzimidazol-1-yl)-phenyl]-urea], the GI50 (with U937 (FLT3 wild-type); in experiment [1]; in experiment [2]; in [3]; in [4]; in [5]) was more than 1 µM each time. Further, the GI50 in experiment [6] is 0.001 to 0.01 µM; in experiment [7] it was 0.001 to 0.01 µM; in the experiment on RS4; 11 (FLT3 wild type) it was more than 1 µM; in the experiment on HL-60 (FLT3 wild type), more than 1 µM.
With `Cc1cc(NC(=O)Nc2ccc(-n3cnc4ccccc43)cc2)n[nH]1` [Compound 64, 1-(4-benzimidazol-1-yl-phenyl)-3-(5-methyl-1H-pyrazol-3-yl)-urea], the GI50 with U937 (FLT3 wild-type) was more than 1 µM; in experiment [1], 0.1 to 1 µM; in experiment [2], more than 1 µM; in experiment [3] it was more than 1 µM; in [4] it was more than 1 µM; in [5] it was more than 1 µM. Further, the GI50 in [6] was 0.1 to 1 µM; in experiment [7] it was 0.1 to 1 µM; with RS4; 11 (FLT3 wild type), more than 1 µM; in the experiment with HL-60 (FLT3 wild type) it was more than 1 µM.
Turning to `CC(C)(C)c1cc(NC(=O)Nc2ccc(-n3cnc4cc(OCCCCc5nnnn5C5CCCCC5)ccc43)cc2)[nH]n1` [Compound 94, 1-(5-tert-butyl-2H-pyrazol-3-yl)-3-(4-{5-[4-(1-cyclohexyl-1H-tetrazol-5-yl)-butoxy]-benzimidazol-1-yl}-phenyl)-urea], the GI50 (with U937 (FLT3 wild-type); in [1]; in experiment [2]; in experiment [3]; in experiment [4]; in experiment [5]) was more than 1 µM each time. Moreover, the GI50 in experiment [6] was 0.001 to 0.01 µM; in experiment [7], 0.001 to 0.01 µM; in the experiment with RS4; 11 (FLT3 wild type), more than 1 µM; in the experiment with HL-60 (FLT3 wild type), more than 1 µM.
